# Reference: patent US20240238424A1, “HETEROBIFUNCTIONAL COMPOUNDS AND METHODS OF TREATING DISEASE” (Halda Therapeutics OpCo, Inc., priority 2021, published 2024)
# Molecular target: T1, GSPT1 (Homo sapiens, UniProt P15170+Q96SW2)
# T1 construct: host or cells: HEK293 LgBiT cell line
# Assay: GSPT1 HiBit degradation assay
# Type: cell-based
# Settings: Table 3; HEK293 LgBiT cells expressing GSPT1_HiBiT, luminescence after 6 hours
# Description: Promega developed a HEK293 cell line that constitutively expresses LgBiT protein and GSPT1_HiBiT fusion protein. When both proteins are present, the HiBiT portion of the fusion protein combines with LgBiT protein to form a functional luciferase enzyme. Endurazine, a cell permeable small molecule, is converted by cellular esterases into furimazine, which the luciferase enzyme uses as a substrate to generate luminescence. When GSPT1 is degraded, the HiBit is also degraded. This prevents formation of fully functional luciferase, leading to a loss in luminescence. GSPT1 degradation therefore correlates with a decrease in luminescence and can be measured continuously over time. The concentration of compound at which 50% GSPT1 degradation occurs (DC50) was calculated using this system.
# • HEK293 LgBiT Cell line (Promega Custom) • Endurazine Substrate (Promega Cat. #N2570) • DMEM (Gibco Cat. #11995) • Penicillin/Streptomycin (Gibco Cat. #15140-122) • Heat Inactivated Fetal Bovine Serum (Gibco Cat. #A38400-01) • Hygromycin B (Gibco Cat. #10-687-010) • 384 Well TC Treated White Microplate (Perkin Elmer Cat. #6007680)
# HEK293 LgBiT cells were cultured in DMEM Media supplemented with 10% FBS, 5% Pen/Strep, 200 μg/ml hygromycin and stored in an incubator set at 37° C. and 5% CO2. 18-24 hours prior to compound treatment, HEK293 LgBiT cells were seeded at 1000 cells/well in a 384-well microplate in 25 μl complete media. The plate was spun at 300 g for 30 seconds and stored in the incubator overnight. The next day, compounds were titrated in DMSO and added to media supplemented with endurazine substrate. A 25 ul aliquot of 2× compound/endurazine in media were then added to the 384-well microplate with seeded cells. (Endurazine was used at a final concentration of 0.5×). The plate was spun at 300 g for 30 seconds and stored in the incubator. After 6 hours the plate was read on a Perkin Elmer MultiMode Plate Reader Envision 2105 to measure luminescence signal.
# T1 sequence (P15170 whole entry): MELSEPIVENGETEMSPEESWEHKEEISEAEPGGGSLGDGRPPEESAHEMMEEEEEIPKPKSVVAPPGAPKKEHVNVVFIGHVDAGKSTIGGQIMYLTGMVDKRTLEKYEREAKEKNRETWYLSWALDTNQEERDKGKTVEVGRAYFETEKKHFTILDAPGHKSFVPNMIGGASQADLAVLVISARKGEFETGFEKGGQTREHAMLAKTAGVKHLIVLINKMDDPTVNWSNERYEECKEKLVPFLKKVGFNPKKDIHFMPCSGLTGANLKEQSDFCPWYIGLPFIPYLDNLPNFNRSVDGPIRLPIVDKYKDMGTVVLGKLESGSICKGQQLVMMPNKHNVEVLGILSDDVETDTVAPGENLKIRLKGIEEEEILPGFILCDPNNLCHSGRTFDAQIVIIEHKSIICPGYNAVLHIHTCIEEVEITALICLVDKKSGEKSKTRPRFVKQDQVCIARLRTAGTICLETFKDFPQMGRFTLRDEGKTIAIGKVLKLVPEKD
# T1 sequence (Q96SW2 whole entry): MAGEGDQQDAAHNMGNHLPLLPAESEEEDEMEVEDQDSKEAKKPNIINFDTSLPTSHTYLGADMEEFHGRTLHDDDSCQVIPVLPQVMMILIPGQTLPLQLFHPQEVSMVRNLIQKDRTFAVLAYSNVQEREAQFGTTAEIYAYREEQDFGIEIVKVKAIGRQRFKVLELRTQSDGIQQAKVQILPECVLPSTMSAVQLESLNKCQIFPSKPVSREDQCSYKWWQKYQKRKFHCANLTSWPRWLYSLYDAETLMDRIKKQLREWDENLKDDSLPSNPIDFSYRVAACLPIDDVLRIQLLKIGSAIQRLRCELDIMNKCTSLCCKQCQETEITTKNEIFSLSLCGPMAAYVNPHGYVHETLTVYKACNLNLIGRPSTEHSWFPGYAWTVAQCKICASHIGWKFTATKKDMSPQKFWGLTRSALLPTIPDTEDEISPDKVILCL
# T1 sequence (Q16531 whole entry partner): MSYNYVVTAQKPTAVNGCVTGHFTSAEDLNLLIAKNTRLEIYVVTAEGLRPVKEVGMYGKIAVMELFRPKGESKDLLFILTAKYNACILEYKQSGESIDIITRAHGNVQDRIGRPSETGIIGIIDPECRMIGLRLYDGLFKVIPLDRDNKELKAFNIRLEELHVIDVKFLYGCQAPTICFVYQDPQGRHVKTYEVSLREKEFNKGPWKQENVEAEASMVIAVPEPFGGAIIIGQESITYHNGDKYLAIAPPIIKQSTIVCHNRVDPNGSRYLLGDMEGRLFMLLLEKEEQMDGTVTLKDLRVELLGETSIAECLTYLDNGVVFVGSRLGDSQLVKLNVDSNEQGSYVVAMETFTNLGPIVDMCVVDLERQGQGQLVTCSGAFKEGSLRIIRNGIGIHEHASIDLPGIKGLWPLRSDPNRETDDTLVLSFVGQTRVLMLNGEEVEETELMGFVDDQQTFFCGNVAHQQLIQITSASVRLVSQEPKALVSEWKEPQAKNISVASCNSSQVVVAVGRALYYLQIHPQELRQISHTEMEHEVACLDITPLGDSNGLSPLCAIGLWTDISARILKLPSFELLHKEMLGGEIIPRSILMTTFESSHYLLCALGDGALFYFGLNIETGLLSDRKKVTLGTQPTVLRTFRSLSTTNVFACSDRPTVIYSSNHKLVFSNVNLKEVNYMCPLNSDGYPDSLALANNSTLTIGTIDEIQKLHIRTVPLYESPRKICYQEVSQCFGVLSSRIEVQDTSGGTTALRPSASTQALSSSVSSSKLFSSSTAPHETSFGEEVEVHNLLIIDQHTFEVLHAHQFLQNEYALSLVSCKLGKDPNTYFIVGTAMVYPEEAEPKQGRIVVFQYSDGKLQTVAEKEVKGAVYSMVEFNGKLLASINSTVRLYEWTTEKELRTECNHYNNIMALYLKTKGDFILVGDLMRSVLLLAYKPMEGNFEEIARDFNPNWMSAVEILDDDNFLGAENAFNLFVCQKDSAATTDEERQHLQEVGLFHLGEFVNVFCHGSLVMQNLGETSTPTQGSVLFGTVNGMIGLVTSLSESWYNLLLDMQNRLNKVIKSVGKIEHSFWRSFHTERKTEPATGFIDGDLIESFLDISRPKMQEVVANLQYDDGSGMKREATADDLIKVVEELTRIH
row,DC50 [µM],Structure (SMILES)
1,< 0.25,C=CC(=O)Nc1cc(Nc2nccc(-c3cn(C)c4ccccc34)n2)c(OC)cc1N(C)CCN(C)CCOCCOCCOCCOCCOCCOCCCCCCCCc1cc(Cl)cc(NC(=O)NCc2ccc3c(c2)CN(C2CCC(=O)NC2=O)C3=O)c1 (stereo not shown) [Compound I-62]
2,< 0.25,Cc1c(CC(=O)N(C)C)ccc(NC(=O)c2nn([C@@H]3CCCN(C(=O)/C=C/CN(C)CCOCCOCCOCCOCCOCCOCCOCCOCCCCCCCCc4cc(Cl)cc(NC(=O)NCc5ccc6c(c5)CN(C5CCC(=O)NC5=O)C6=O)c4)C3)c3ncnc(N)c23)c1C (stereo partly shown) [Compound I-69]
3,> 10,C=CC(=O)Nc1cc(Nc2nccc(-c3cn(C)c4ccccc34)n2)c(OC)cc1N(C)CCN(C)CCOCCOCCOCCOCCOCCOCCOCCOCCc1cc(Cl)cc(NC(=O)NCc2ccc3c(c2)CN(C2CCC(=O)NC2=O)C3=O)c1 (stereo not shown) [Compound I-35]
4,< 0.25,CCN(CCCCCCCCc1cc(Cl)cc(NC(=O)NCc2ccc3c(c2)CN(C2CCC(=O)NC2=O)C3=O)c1)CCOc1ccc(C(=O)c2c(-c3ccc(O)cc3)sc3cc(O)ccc23)cc1 (stereo not shown) [Compound I-58]
5,< 0.25,C=CC(=O)Nc1cc(Nc2nccc(-c3cn(C)c4ccccc34)n2)c(OC)cc1N(C)CCN(C)CCOCCOCCOCCOCCOCCOCCOCCOCCCCCCCCc1cc(Cl)cc(NC(=O)NCc2ccc3c(c2)CN(C2CCC(=O)NC2=O)C3=O)c1 (stereo not shown) [Compound I-68]
6,5 to 10,C=CC(=O)Nc1cc(Nc2nccc(-c3cn(C)c4ccccc34)n2)c(OC)cc1N(C)CCN(C)CCOCCOCCOCCOCCOCCOCCOc1cc(Cl)cc(NC(=O)NCc2ccc3c(c2)CN(C2CCC(=O)NC2=O)C3=O)c1 (stereo not shown) [Compound I-33]
7,> 10,COc1cc(N2CCN(C(=O)COCCOCCOCCOCCOCCOCCOCCOCCOc3cc(Cl)cc(NC(=O)NCc4ccc5c(c4)CN(C4CCC(=O)NC4=O)C5=O)c3)CC2)ccc1Nc1ncc(Cl)c(Nc2ccccc2P(C)(C)=O)n1 (stereo not shown) [Compound I-26]
8,0.25 to 5,CC1(C)[C@H](NC(=O)c2ccc(OCCOCCOCCOCCOCCOCCOCCOCCOCCc3cc(Cl)cc(NC(=O)NCc4ccc5c(c4)CN(C4CCC(=O)NC4=O)C5=O)c3)cc2)C(C)(C)[C@H]1Oc1ccc(C#N)c(Cl)c1 (stereo partly shown) [Compound I-28]
9,5 to 10,C=CC(=O)Nc1cc(Nc2nccc(-c3cn(C)c4ccccc34)n2)c(OC)cc1N(C)CCN(C)CCOCCOCCOCCOCCOCCOCCOCCOCCOCCOCCOc1cc(Cl)cc(NC(=O)NCc2ccc3c(c2)CN(C2CCC(=O)NC2=O)C3=O)c1 (stereo not shown) [Compound I-60]
10,< 0.25,Cc1c(CC(=O)N(C)C)ccc(NC(=O)c2nn(C3CCCN(C(=O)/C=C/CN(C)CCOCCOCCOCCOCCOCCOCCCCCCCCc4cc(Cl)cc(NC(=O)NCc5ccc6c(c5)CN(C5CCC(=O)NC5=O)C6=O)c4)C3)c3ncnc(N)c23)c1C (stereo not shown) [Compound I-65]
11,5 to 10,C=CC(=O)Nc1cc(Nc2nccc(-c3cn(C)c4ccccc34)n2)c(OC)cc1N(C)CCN(C)CCOCCOCCOCCOCCOCCOCCOCCOCCOCCOCCc1cc(Cl)cc(NC(=O)NCc2ccc3c(c2)CN(C2CCC(=O)NC2=O)C3=O)c1 (stereo not shown) [Compound I-36]
12,0.25 to 5,CC1(C)[C@H](NC(=O)c2ccc(OCCOCCOCCOCCOCCOCCOCCOCCOCCOCCOCCc3cc(Cl)cc(NC(=O)NCc4ccc5c(c4)CN(C4CCC(=O)NC4=O)C5=O)c3)cc2)C(C)(C)[C@H]1Oc1ccc(C#N)c(Cl)c1 (stereo partly shown) [Compound I-29]
13,> 10,C=CC(=O)Nc1cc(Nc2nccc(-c3cn(C)c4ccccc34)n2)c(OC)cc1N(C)CCN(C)CCOCCOCCOCCOCCOCCOCCOCCOCCOc1cc(Cl)cc(NC(=O)NCc2ccc3c(c2)CN(C2CCC(=O)NC2=O)C3=O)c1 (stereo not shown) [Compound I-57]
14,5 to 10,C=CC(=O)Nc1cc(Nc2nccc(-c3cn(C)c4ccccc34)n2)c(OC)cc1N(C)CCN(C)CCOCCOCCOCCOCCOCCOCCc1cc(Cl)cc(NC(=O)NCc2ccc3c(c2)CN(C2CCC(=O)NC2=O)C3=O)c1 (stereo not shown) [Compound I-34]

# Same assay, conditions: Table 3A; HEK293 LgBiT cells expressing GSPT1_HiBiT, luminescence after 6 hours
row,Structure (SMILES),DC50 [µM]
1,CN(C/C=C/C(=O)N1CCN(c2nc(OC[C@@H]3CCCN3C)nc3c2CCN(c2cccc4cccc(Cl)c24)C3)C[C@@H]1CC#N)CCOCCOCCOCCOCCOCCOCCOCCOCCOCCOCCCCCCCCc1cc(Cl)cc(NC(=O)NCc2ccc3c(c2)CN(C2CCC(=O)NC2=O)C3=O)c1 (stereo partly shown) [Compound I-87],0.25 to 5
2,CCN(CCOCCOCCOCCOCCCCCCCCc1cc(Cl)cc(NC(=O)NCc2ccc3c(c2)CN(C2CCC(=O)NC2=O)C3=O)c1)CCOc1ccc(C(=O)c2c(-c3ccc(O)cc3)sc3cc(O)ccc23)cc1 (stereo not shown) [Compound I-77],< 0.25
3,CN(C/C=C/C(=O)N1CCC[C@@H](n2nc(-c3ccc(Oc4ccccc4)cc3)c3c(N)ncnc32)C1)CCOCCOCCOCCOCCOCCOCCOCCOCCOCCOCCCCCCCCc1cc(Cl)cc(NC(=O)NCc2ccc3c(c2)CN(C2CCC(=O)NC2=O)C3=O)c1 (stereo partly shown) [Compound I-83],0.25 to 5
4,Nc1ncnc2c1c(-c1ccc(Oc3ccccc3)cc1)nn2[C@@H]1CCCN(C(=O)/C=C/COCCOCCOCCOCCOCCOCCOCCOCCOCCOCCOCCCCCCCCc2cc(Cl)cc(NC(=O)NCc3ccc4c(c3)CN(C3CCC(=O)NC3=O)C4=O)c2)C1 (stereo partly shown) [Compound I-94],0.25 to 5
5,CN(C/C=C/C(=O)N1CCN(c2nc(OC[C@@H]3CCCN3C)nc3c2CCN(c2cccc4cccc(Cl)c24)C3)C[C@@H]1CC#N)CCOCCOCCOCCOCCOCCOCCOCCOCCOCCOCCOCCOCCCCCCCCc1cc(Cl)cc(NC(=O)NCc2ccc3c(c2)CN(C2CCC(=O)NC2=O)C3=O)c1 (stereo partly shown) [Compound I-88],0.25 to 5
6,Cc1c(NC(=O)c2ccc(C3CC3)cc2F)cc(F)cc1-c1ncnc(N)c1OCCN(C)C(=O)/C=C/CN(C)CCOCCOCCOCCOCCCCCCCCc1cc(Cl)cc(NC(=O)NCc2ccc3c(c2)CN(C2CCC(=O)NC2=O)C3=O)c1 (stereo not shown) [Compound I-96],< 0.25

# Now from value to compound:
row,DC50 [µM],Structure (SMILES)
1,0.25 to 5,C=CC(=O)N1CCN(c2nc(=O)n(-c3c(C)cc(OCCOCCOCCOCCOCCOCCOCCOCCCCCc4cc(Cl)cc(NC(=O)NCc5ccc6c(c5)CN(C5CCC(=O)NC5=O)C6=O)c4)nc3C(C)C)c3nc(-c4c(O)cccc4F)c(F)cc23)[C@@H](C)C1 (stereo partly shown) [Compound I-153]
2,0.25 to 5,CN(C/C=C/C(=O)N1CCC[C@@H](n2nc(-c3ccc(Oc4ccccc4)cc3)c3c(N)ncnc32)C1)CCOCCOCCOCCOCCOCCOCCOCCCCCc1cc(Cl)cc(NC(=O)NCc2ccc3c(c2)CN(C2CCC(=O)NC2=O)C3=O)c1 (stereo partly shown) [Compound I-111]
3,0.25 to 5,C=C(F)C(=O)N1CCN(c2nc(OC[C@@H]3CCCN3CCCOCCOCCOCCOCCOCCOCCOCCOCCOCCCCCc3cccc(NC(=O)NCc4ccc5c(c4)CN(C4CCC(=O)NC4=O)C5=O)n3)nc3c2CCN(c2cccc4cccc(Cl)c24)C3)C[C@@H]1CC#N (stereo partly shown) [Compound I-156]
4,0.25 to 5,C=C(F)C(=O)N1CCN(c2nc(OC[C@@H]3C[C@@H](OCC(=O)N(C)CCOCCOCCOCCOCCOCCOCCOCCCCCc4cc(Cl)cc(NC(=O)NCc5ccc6c(c5)CN(C5CCC(=O)NC5=O)C6=O)c4)CN3C)nc3c2CCN(c2cccc4cccc(Cl)c24)C3)C[C@@H]1CC#N (stereo partly shown) [Compound I-136]
5,5 to 10,CN(C/C=C/C(=O)N1CCC[C@@H](n2nc(-c3ccc(Oc4ccccc4)cc3)c3c(N)ncnc32)C1)CCOCCOCCOCCOCCOCCOCCOCCOCCOCCCCCc1cc(Cl)cc(NC(=O)NCc2ccc3c(c2)CN(C2CCC(=O)NC2=O)C3=O)c1 (stereo partly shown) [Compound I-117]
6,0.25 to 5,CN(CCOCCOCCOCCOCCOCCOCCOCCOCCOCCCCCc1cc(Cl)cc(NC(=O)NCc2ccc3c(c2)CN(C2CCC(=O)NC2=O)C3=O)c1)C(=O)CO[C@H]1CC[C@H]2[C@@H]3CC[C@H]4CC(=O)CC[C@]4(C)[C@H]3CC[C@]12C (stereo partly shown) [Compound I-135]
7,0.25 to 5,Cc1c(NC(=O)c2ccc(C3CC3)cc2F)cc(F)cc1-c1ncnc(N)c1OCCN(C)C(=O)/C=C/CN(C)CCOCCOCCOCCCCCc1cc(Cl)cc(NC(=O)NCc2ccc3c(c2)CN(C2CCC(=O)NC2=O)C3=O)c1 (stereo not shown) [Compound I-112]
8,5 to 10,CN(C/C=C/C(=O)N1CCN(c2nc(OC[C@@H]3CCCN3C)nc3c2CCN(c2cccc4cccc(Cl)c24)C3)C[C@@H]1CC#N)CCOCCOCCOCCOCCOCCOCCOCCOCCOCCCCCc1cc(Cl)cc(NC(=O)NCc2ccc3c(c2)CN(C2CCC(=O)N(C)C2=O)C3=O)c1 (stereo partly shown) [Compound I-164]
9,0.25 to 5,C=CC(=O)NC1CN(c2nc(Nc3cn(CCOCCOCCOCCOCCOCCOCCOCCOCCOCCCCCc4cc(Cl)cc(NC(=O)NCc5ccc6c(c5)CN(C5CCC(=O)NC5=O)C6=O)c4)nc3OC)c3ncn(C)c3n2)C[C@H]1F (stereo partly shown) [Compound I-126]
10,0.25 to 5,CN(C/C=C/C(=O)N1CCC[C@@H](n2nc(-c3ccc(Oc4ccccc4)cc3)c3c(N)ncnc32)C1)CCOCCOCCOCCCCCc1cc(Cl)cc(NC(=O)NCc2ccc3c(c2)CN(C2CCC(=O)NC2=O)C3=O)c1 (stereo partly shown) [Compound I-110]
11,0.25 to 5,Cc1c(NC(=O)c2ccc(C3CC3)cc2F)cc(F)cc1-c1ncnc(N)c1OCCN(C)C(=O)/C=C/CN(C)CCOCCOCCOCCOCCOCCOCCOCCOCCOCCOCCOCCCCCc1cc(Cl)cc(NC(=O)NCc2ccc3c(c2)CN(C2CCC(=O)NC2=O)C3=O)c1 (stereo not shown) [Compound I-143]
